From US20070184080A1, “Post harvest treatment of crops” (AstraZeneca UK Ltd, priority 2002, published 2007)

Tested on: Colletotrichum musae
Test: Field test on inoculated banana hands: severity and incidence of molds and rots after 21 days storage
Assay type: in vivo
Conditions: 14 Degrees C., 90% RH
From the text: As set forth below, two sample formulations, Formula “C” and Formula “F”, containing paraffin wax, microcrystalline wax, and polybutylene (synthetic butyl rubber) were field tested in a tropical commercial banana operation. The test was designed to test the wax fungicide alternative, “the invention”, versus untreated placebo fruit and identical fruit treated with commercial fungicides. The inoculants were a highly concentrated aqueous Colletotrichum musae spore solution that is grossly more concentrated than actual field processing conditions. […] The test methodology included with four main test groups, each containing a statistically significant number of banana hands (clusters) to compare the relative infestation incidence rate of: • a.) Untreated inoculated fruit. • b.) Modified-wax treated inoculated fruit.—Two Formulas, C and F • c.) Fungicide treated inoculated fruit. • 1.) All of the fruit was inoculated with an aqueous suspension of 20,000 spores per milliliter of Colletotrichum by immersion in said suspension for a minimum of one minute. • 2.) The Formula C and F wax treated fruit was processed by dipping the wet crown of the inoculated banana hands into the molten wax, cooling for one minute, and re-dipping in the molten wax. • 3.) The Fungicide treated fruit was immersed into an aqueous solution of Thiabenzadole at the manufacturer's recommended dosage. • 4. All of the fruit was packaged and stored in a laboratory warehouse for twenty-one days at a temperature of 14 Degrees C. and ninety percent relative humidity. An empirical visual grading scale was employed to record and measure test results for a.) The presence or absence of rots and molds.; and b.) The severity of infestation. Latex staining was also observed and recorded. A visual infestation severity scale of one to five (1-5) was created where: 1=clean crown, and 5=severely rotten crown. After incubation, the banana producer's trained laboratory technicians graded the fruit and the aggregate results were compiled as presented below.

c1ccc2[nH]c(-c3cscn3)nc2c1 [Thiabenzadole]
Severity Crown Mold (Procedure I = Inoculated (20,000 spores/ml Colletotrichum), 1=clean crown, 5=severely rotten crown): 3.7 Scale 1-5
INCIDENCE Crown Mold (Procedure I = Inoculated): 92.2%
INCIDENCE Crown Rot (Procedure I = Inoculated): 100%
INCIDENCE Neck Rot (Procedure I = Inoculated): 27.2%
INCIDENCE Peel Rot (Procedure I = Inoculated): 84%
Severity Crown Rot (Procedure I = Inoculated, 1=clean crown, 5=severely rotten crown): 3.92 Scale 1-5
